Each block holds one compound with its values, some of them ahead of it.
Columns and labels:
[1] = Clinical trial observations in patients given 200 mg tablets; format: in vivo
Experimental: Parmi les observations recueillies en essai clinique, avec administration de comprimés titrés à 200 mg de principe actif, le chlorhydrate de l'ortho [(diméthoxy-3,4 phénéthylamino) -3 hydroxy-2 propoxy] trans cinnamate de méthyle, on peut rapporter les trois suivantes : • Observation N°1: • Monsieur NOV...., 64 ans présente un état de mal angineux chroniaue avec huit crises par 24 heures. Le traitement consiste en un repos et la prise d'un comprimé à 200 mg du composé exemple 1 24 heures pendant 10 jours. Le résultat est un effet bradycardisant net; le pouls passe de 95 à 60 et une très nette diminution des crises dès le deuxième jour (2 à 3 par 24 heures) est notée. La tolérance est très bonne. • Obseryation N°2: • Monsieur CLI...., 75 ans présente un bloc auriculo- ventriculaire complet appareillé par pace-maker cardis à un rythme fixe (68/mn) avec parpsystolie. A l'suscultation on note un souffle systolique en écharpe. L'électrocardiogramme montre une paracystolie avec complexes spontanés à F.R. long et aspect de bloc gauche et co-plexe électro- entrainés. La radiographie montre une hypertrophie ventriculaire gauche modérée. Le traitement consiste en la prise journalière pendant 10 jours du composé exemple 1 à 200 mg.
Monsieur HEL ...., 44 ans a une hypertension artérielle depuis 3 ans; les chiffres habituels récents sont 180/110 mn Mg. L'étiologie est inconnue et il n'y a pas de complications. On associe au traitement consistant en la prise le matin d' 1 comprimé à 200 mg, pendant 15 jours, un régime hyposodé.

[2] = system: récepteurs bêta-2; assay: Inhibition of isoprenaline-induced hypotension in the anaesthetised, bivagotomised dog; format: in vivo, chien; settings: dog anaesthetised with pentobarbital, isoprénaline 0,4 µg/kg/I.V., beta-2 blockade
From the text: L'hypotension provoquée par l'isoprénaline est due à une stimulation des récepteurs bêta-2 qui entraîne une vasodilatation. La tachycardie produite par l'isopré- naline est due à une stimulation des récepteursbêta-1 cardiaques oui entraîne une accélération de son rythme de contraction.

[3] = system: récepteurs bêta-1; assay: Inhibition of isoprenaline-induced tachycardia in the anaesthetised, bivagotomised dog; format: in vivo, chien; settings: dog anaesthetised with pentobarbital, isoprénaline 0,4 µg/kg/I.V., beta-1 blockade
Experimental: […]'action sur […] tension artérielle et du rythme cardiaque du […]é au pentobarbital et bivagotomisé recevant des injections […] (0,4 μg/kg/I.V.). L'hypotension provoquée par l'isoprénaline est due à une stimulation des récepteurs bêta-2 qui […] une vasodilatation. La […] produite par l'isopré- naline est due à une stimulation des récepteursbêta-1 cardiaques oui […] une accélération de son rythme de contraction. Dans l'inhibition […] visualisant un effet de blocage des récepteurs bêta-1, on a déterminé la dose efficace 50 en mg/kg/I.V.

tolérance ([1]; Observation N°1: 200 mg per 24 h for 10 days): très bonne
tolérance ([1]; Observation N°2: 200 mg daily for 10 days): très bonne
SMILES: COC(=O)/C=C/c1ccccc1OCC(O)CNCCc1ccc(OC)c(OC)c1 (racemic) [Composé exemple 1, trans ortho [(3-4 diméthoxyphénéthyl)amino-3 hydroxy-2 propoxy] cinnamatede méthyle]
crises par 24 heures ([1]; Observation N°1: angina attacks from the second day, one 200 mg tablet per 24 h, before treatment eight per 24 h): 2 à 3 par 24 heures
pouls ([1]; Observation N°1: patient, chronic angina, one 200 mg tablet per 24 h for 10 days, before treatment 95): 60
résultat ([1]; Observation N°2: patient, complete AV block with pacemaker and parasystole, 200 mg daily for 10 days): disparition de la para- systolie
Pouls, Après ([1]; Observation N°3: after treatment, 200 mg per day for 15 days, before 70): 60
Tension artérielle debout, Après ([1]; Observation N°3: after treatment, 200 mg per day for 15 days, before 160/100): 140/88
Tension artérielle couché, Après ([1]; Observation N°3: after treatment, 200 mg per day for 15 days, before 165/102): 140/90
tolérance ([1]; Observation N°3: general and local tolerance, 200 mg per day for 15 days): bonne
résultat ([1]; Observation N°3: patient, arterial hypertension, one 200 mg tablet in the morning for 15 days, with low-sodium diet): très bon

SMILES: COC(=O)/C=C/c1ccccc1OCC(O)CNC(C)C (stereo not drawn) [LM 748, chlorhydrate de l'ortho (isopropylamino 3 - hydroxy-2 propoxy) trans cinnamate de méthyle]
dose efficace 50 (DE 50), inhibition de l'hypotension à l'isoprénaline [2]: 0,01 mg/kg/I.V.

SMILES: CC(=O)Nc1ccc(OCC(O)CNC(C)C)cc1 (stereo not drawn) [Fractolol, 4' - [2-hydroxy-3 - (iso-propylamino)propoxy] acétanilide]
dose efficace 50 (DE 50), inhibition de la tachycardie à l'isoprénaline [3]: 0,61 mg/kg/I.V.

Source: patent EP0003461A1, “Aminoalcohol derivatives of ortho-hydroxy-methyl cinnamate, process for their preparation and medicines containing them” (LIPHA, LYONNAISE INDUSTRIELLE PHARMACEUTIQUE, priority 1978, dated 1979)
